In patent US20030165853A1, “Antisense imaging of gene expression of the brain in vivo” (The Regents of the University of California Office of …, priority 2000, published 2003):

How the values were obtained:
[1] = test system: C6 experimental tumors; test: Film autoradiography in rats bearing control C6 tumors not transfected with the luciferase transgene; format: in vivo, rat; conditions: 100 μCi i.v., brain removed at 2 h
Procedure: The C6-790 cells were implanted in the caudate-putamen nucleus of male CD Fischer 344 rats (Harlan Breeders, Indianapolis, Ind.), weighing 250-275 g under stereotaxic guidance, as described previously (Kurihara et al. (1999) Bioconjugate Chem. 10: 502-511). The animals were examined 14 days later. To confirm expression of the luciferase transgene in the tumor in vivo, tumor extracts were prepared in Promega lysis buffer, and luciferase enzyme activity was measured with luciferin as substrate (Promega) by using a Berthold (Nashua, N.H.) luminometer, as described previously (Boado and Pardridge (1998) Mol. Brain Res. 59: 109-113). A luciferase standard curve was also assayed, and the enzyme activity was expressed as picograms of luciferase equivalent per milligram of tissue protein. The C6-790 cells were grown in tissue culture as described previously (Id.), and these cells were also extracted in Promega lysis buffer for measurement of luciferase activity in the cells grown in tissue culture before implantation in brain. Control experiments were performed with C6 cells described previously (13), and these cells were used to develop brain tumors exactly as described above, except these tumor cells were not transfected with the luciferase transgene.
The brain scans and autopsy stains for three different groups of adult Fischer rats bearing the C6-790 gliomas are shown in FIG. 5. […]

[2] = test system: luciferase mRNA; test: Film autoradiography in rats bearing C6-790 brain tumors; format: in vivo, rat; conditions: 100 μCi i.v., brain removed at 2 h, C6-790 gliomas in Fischer rats
Procedure: Fourteen days after implantation of C6-790 cells, the rats were anesthetized with ketamine and xylazine for i.v. injection of brain imaging agents, as described previously (Kurihara et al. (1999) Bioconjugate Chem. 10: 502-511). […] In these studies, each rat received 0.2 nmol of PNA and 40 μg (0.2 nmol) of OX26/SA. Each rat was also administered 20 mg of L-tyrosine and 2 mg of sodium iodide i.p. 15 min before the study to block brain uptake of radiolabeled metabolites such as [^125I]tyrosine or iodide. […]

[3] = rat, in vivo, iv
Procedure: Either the unconjugated anti-luciferase PNA or the anti-luciferase PNA conjugated to OX26/SA was injected intravenously into ketamine/xylazine anesthetized adult male Sprague-Dawley rats (270-300 g) by using methods described previously (10). The dose of radioactivity in these experiments was 5 μCi/rat of PNA (0.02 nmol) conjugated to 20 μg/rat of OX26/SA (0.1 nmol).

[4] = test system: C6-790 cells; test: Uptake of [125I]PNA tracers in cultured C6-790 cells; format: cell-based, rat; conditions: 2-24 h incubation, TCA-precipitable cellular fraction
Procedure: (§1) The uptake of ^125I-labeled antirev or antiluciferase PNA was investigated in C6-790 and C6 cells in the presence or absence of OX26/SA. Cells were grown in 24 well dishes and incubated with 5 μCi/ml (12 nM) [^125I]PNA with and without OX26/SA (1:1 molar ratio) for 2, 4, 6, or 24 h. The monolayers were then washed 3 times in 2.5 ml cold PBS (10 mM phosphate buffer, pH 7.2/150 mM NaCl) and lysed with 250 μl reporter lysis buffer (Promega), as previously described (Boado and Pardridge (1998) Mol. Brain Res. 59: 109-113). Aliquots of samples (100 μl) and standards (10 μl) were precipitated with TCA, and the percent of medium PNA that was taken up into the TCA-precipitable cellular fraction was measured and expressed either as nanograms PNA per milligram protein or percentage uptake per milligram protein. Twenty-microliter lysate aliquots were also resolved by SDS in a 12% gel. Gels were fixed in 50% MeOH and 10% acetic acid solution for 30 min, incubated in 7% MeOH, 7% acetic acid and 1% glycerol for 5 min, and dried before autoradiography with Kodak BioMax film and intensifying screens. For the pulse-chase study, either control C6 or C6-790 cells were incubated as described above with 10 μCi/ml (24 nM) [^125I]antiluciferase PNA conjugated to OX26SA for 24 h. […] TCA-precipitable cellular radioactivity was then measured at 0, 2, 6, or 24 h of incubation.

[5] = test system: HD mRNA; test: HD RNase protection assay; format: binding, human; conditions: RNase T1/A digestion, PAGE autoradiography
Procedure: The sense RNA was synthesized with T3 RNA polymerase following linearization of the plasmid with EcoRI. The transcribed RNA was radiolabeled with [^32Pα]ATP to a specific activity of 0.22 μCi/pmol, as previously described (Boado and Pardridge (1994) Bioconj. Chem., 6: 406-410). For the RNAse protection assay, 0.6 pmol of biotinylated HD-PNA or biotinylated luciferase-PNA, with or without conjugation to 6.4 pmol of MAb-SA, was added to 10^5 CPM of [^32P]-labeled sense HD RNA (0.2 pmol) in 3 μl buffer (80 mM NaCl, 7 mM phosphate buffer, pH=7.5, 0.1% BSA), and annealed for 30 minutes at 42° C. Then 20 units RNAse Ti and 2.5 μg RNAse A were added to the samples in 17 μl of RNAse digestion buffer (0.3 M NaCl, 10 mM TRIS pH=7.5, 4 mM EDTA, 0.02% tRNA, 0.02% BSA) and incubated for 30 min at 37° C. RNA fragments were analyzed by 7 M urea/20% polyacrylamide gel electrophoresis following by autoradiography as described by Pardridge et al. (1995) Proc. Natl. Acad. Sci., USA, 92:5592-5596. Labeled RNA and PNAs were heat denatured for 2 minutes at 95° C. and then incubated on ice for 2 minutes immediately before the experiment or conjugation to MAb-SA.

[6] = test system: luciferase mRNA; test: Luciferase RNase protection assay; format: binding, firefly; conditions: RNase A/T1 protection
Procedure: These methods were identical to those described previously (Pardridge et al. (1995) Proc. Natl. Acad. Sci., USA, 92: 5592-5596). The luciferase RNA was prepared with a luciferase transcription plasmid, designated clone 760, which has been described previously (Tsukamoto et al. (1997) J. Neurochem. 68: 2587-2592). The sense RNA was synthesized with T7 RNA polymerase after linearization of the plasmid with EcoRI. The transcribed RNA was radiolabeled with [^32Pα]ATP, and the correct size of the radiolabeled transcribed sense RNA was determined by agarose/formaldehyde gel electrophoresis followed by film autoradiography. For the RNase protection assay, 0.5 pmol of biotinylated luciferase PNA with or without conjugation to 10 pmol of OX26/SA was added to 10 5 cpm of ^32P-labeled sense luciferase RNA (8 fmol) in 3 μl buffer (50 mM NaCl/5 mM Tris, pH 8/0.5 mM EDTA) and annealed for 30 min at 56° C. Then 15 units of RNase T1 and 0.4 units of RNase A were added to samples in […] of RNase digestion buffer m (Ambion, Austin, Tex.). RNA fragments were analyzed by 7 M urea/20% PAGE and autoradiography, as described previously (Pardridge et al. (1995) Proc. Natl. Acad. Sci., USA, 92: 5592-5596). Labeled RNA and PNA were heat denatured for 2 min at 95° C. and then incubated on ice for 2 min immediately before the experiment or conjugation to OX26/SA.

[7] = test system: C6 cells; test: Uptake of [125I]PNA tracers in cultured C6 cells; format: cell-based, rat; conditions: 2-24 h incubation, TCA-precipitable cellular fraction
Procedure: as §1

[8] = target: rat transferrin receptor (rat) (UniProt Q99376); test: cell-based or functional assay
Chain of rat transferrin receptor (rat) (Q99376 whole entry): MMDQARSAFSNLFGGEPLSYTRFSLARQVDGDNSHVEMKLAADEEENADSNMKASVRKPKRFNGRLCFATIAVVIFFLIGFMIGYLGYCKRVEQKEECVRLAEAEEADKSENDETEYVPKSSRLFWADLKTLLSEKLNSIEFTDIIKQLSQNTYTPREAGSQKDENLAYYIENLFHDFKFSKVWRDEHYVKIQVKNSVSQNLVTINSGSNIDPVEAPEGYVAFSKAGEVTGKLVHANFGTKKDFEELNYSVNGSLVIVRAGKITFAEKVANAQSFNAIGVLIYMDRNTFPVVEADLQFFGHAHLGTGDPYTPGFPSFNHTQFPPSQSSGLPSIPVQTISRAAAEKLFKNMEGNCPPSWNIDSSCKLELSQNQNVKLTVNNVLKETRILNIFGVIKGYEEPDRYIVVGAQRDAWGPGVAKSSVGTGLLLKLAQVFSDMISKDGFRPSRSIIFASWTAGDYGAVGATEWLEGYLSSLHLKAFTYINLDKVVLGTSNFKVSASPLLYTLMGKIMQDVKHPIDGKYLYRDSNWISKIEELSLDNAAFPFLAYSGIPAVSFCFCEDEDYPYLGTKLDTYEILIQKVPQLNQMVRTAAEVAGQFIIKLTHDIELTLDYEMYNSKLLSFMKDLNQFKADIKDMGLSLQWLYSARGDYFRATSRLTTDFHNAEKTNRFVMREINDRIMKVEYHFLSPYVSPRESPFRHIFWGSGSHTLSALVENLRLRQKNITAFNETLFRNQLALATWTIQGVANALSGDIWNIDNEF

Substance | radioactivity in control C6 tumors [1] | imaging of luciferase gene expression in brain tumor [2] | plasma clearance [3] [mL/min/kg] | uptake by C6-790 cells [4] | hybridization to HD mRNA (RNase protected fragment) [5] | hybridization to luciferase sense RNA (protection of 16 mer RNA fragments) [6] | uptake by C6 cells [7] | uptake of [125I]PNA conjugate by cells after 24 h of incubation (ng PNA per milligram of protein) [8]
antiluciferase PNA: biotinylated 16-mer peptide nucleic acid antisense to luciferase mRNA (CTTCCATTTTACCAAC), linkers, Tyr-Lys, amidated carboxy terminus; radioiodinated (all peptide nucleic acid (PNA); biotinylated, linkers, Tyr-Lys, amidated carboxy terminus, radioiodinated) | no measurable radioactivity was detectable | no imaging of either normal brain or brain tumor | 7.2 ± 0.4 | negligible | did not protect the RNA from nuclease digestion | hybridized to the luciferase sense RNA | negligible | 
antirev PNA: control PNA antisense to the rev gene of HIV, sequence CTCCGCTTCTTCCTGCCA (all peptide nucleic acid (PNA); 125I-radiolabelled, conjugated to streptavidin-OX26 antibody, attachment not given here, further chemistry not fully specified) [reference compound] |  |  |  | negligible |  |  | negligible | 
conjugate of the OX26 mAb (mouse monoclonal antibody to the rat transferrin receptor) and recombinant streptavidin (from UniProt P22629 37-163) |  |  |  |  |  |  |  | 10
